Test results taken from the supplement of paper PMC10307832.

What follows are cell lines tested with O=C(Nc1cc(C(F)(F)F)cc(C(F)(F)F)c1)c1cc(Cl)ccc1O [IMD-0354] + Nc1nc2[nH]cc(CCc3ccc(C(=O)N[C@@H](CCC(=O)O)C(=O)O)cc3)c2c(=O)[nH]1 [Pemetrexed] (partner 0.2 µM) (assay: relative viability (nuclei count vs DMSO), 5 days (fraction); higher = more cells survive). Settings: first compound 0.04 µM.
In short: (§1)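 Nuclei were stained with Hoechst during a one-step fixation (final 0.05% Triton X-100, 1% formaldehyde, 1 ug/ml Hoechst) carried out 5 days after dosing, then counted on 4× images. The cells, lung cancer lines in 1536-well plates, had been dosed by pin tool the day after seeding with one drug alone or a fixed anchor-drug dose plus five library-drug doses (not always all listed) in √10 steps. Relative viability is the nuclei count in treated wells divided by that in vehicle wells, and each value is the median of duplicate plates.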

Row | Cell Line | relative viability
1 | PC-14 | 0.128
2 | EKVX | 0.456
3 | LC-2-ad | 0.29
4 | NCI-H2170 | 0.275
5 | NCI-H1975 | 0.292
6 | RERF-LC-KJ | 0.536
7 | SK-MES-1 | 1.16
8 | PC-3 [JPC-3] | 1.42

Same assay, conditions: first compound 0.1265 µM

Row | Cell Line | relative viability
9 | PC-14 | 0.116
10 | EKVX | 0.347
11 | LC-2-ad | 0.268
12 | NCI-H2170 | 0.302
13 | NCI-H1975 | 0.311
14 | RERF-LC-KJ | 0.462
15 | SK-MES-1 | 1.06
16 | PC-3 [JPC-3] | 1

Same assay, conditions: first compound 0.4 µM

Row | Cell Line | relative viability
17 | PC-14 | 0.105
18 | LC-2-ad | 0.276
19 | NCI-H2170 | 0.235
20 | NCI-H1975 | 0.234
21 | RERF-LC-KJ | 0.376
22 | SK-MES-1 | 0.466
23 | PC-3 [JPC-3] | 1.03

Same assay, conditions: first compound 1.265 µM

Row | Cell Line | relative viability
24 | PC-14 | 0.14
25 | EKVX | 0.234
26 | LC-2-ad | 0.189
27 | NCI-H2170 | 0.286
28 | NCI-H1975 | 0.175
29 | RERF-LC-KJ | 0.126
30 | SK-MES-1 | 0.349
31 | PC-3 [JPC-3] | 0.305

Same assay, conditions: first compound 4 µM

Row | Cell Line | relative viability
32 | PC-14 | 0.0524
33 | EKVX | 0.201
34 | LC-2-ad | 0.145
35 | NCI-H2170 | 0.191
36 | NCI-H1975 | 0.157
37 | RERF-LC-KJ | 0.153
38 | SK-MES-1 | 0.187
39 | PC-3 [JPC-3] | 0.405

These cell lines were tested with Cc1cnc(CNC(=O)c2c(=O)c3ccc(N4CCCN(C)CC4)nc3n3c2sc2ccccc23)cn1 [CX-5461] + CC1(C)CCC(c2ccc(Cl)cc2)=C(CN2CCN(c3ccc(C(=O)NS(=O)(=O)c4ccc(N[C@H](CCN5CCOCC5)CSc5ccccc5)c(S(=O)(=O)C(F)(F)F)c4)cc3)CC2)C1 [Navitoclax] (partner 0.5 µM) in the same assay as above. Settings: first compound 0.01 µM.
In short: as §1

Row | Cell Line | relative viability
40 | PC-14 | 1.18
41 | EKVX | 1.13
42 | LC-2-ad | 0.449
43 | NCI-H2170 | 0.627
44 | NCI-H1975 | 1.29
45 | RERF-LC-KJ | 0.95
46 | SK-MES-1 | 1.19
47 | PC-3 [JPC-3] | 0.86

Same assay, conditions: first compound 0.03162 µM

Row | Cell Line | relative viability
48 | PC-14 | 1.06
49 | EKVX | 1.03
50 | LC-2-ad | 0.533
51 | NCI-H2170 | 0.585
52 | NCI-H1975 | 1.1
53 | RERF-LC-KJ | 0.969
54 | SK-MES-1 | 1.28
55 | PC-3 [JPC-3] | 0.861

Same assay, conditions: first compound 0.1 µM

Row | Cell Line | relative viability
56 | PC-14 | 1.03
57 | EKVX | 0.958
58 | LC-2-ad | 0.434
59 | NCI-H2170 | 0.698
60 | NCI-H1975 | 1.09
61 | RERF-LC-KJ | 1.17
62 | SK-MES-1 | 1.28
63 | PC-3 [JPC-3] | 0.746

Same assay, conditions: first compound 0.3162 µM

Row | Cell Line | relative viability
64 | PC-14 | 0.974
65 | LC-2-ad | 0.553
66 | NCI-H2170 | 0.532
67 | NCI-H1975 | 1.25
68 | RERF-LC-KJ | 0.887
69 | SK-MES-1 | 1.38
70 | PC-3 [JPC-3] | 0.784

Same assay, conditions: first compound 1 µM

Row | Cell Line | relative viability
71 | PC-14 | 0.979
72 | EKVX | 0.764
73 | LC-2-ad | 0.362
74 | NCI-H2170 | 0.665
75 | NCI-H1975 | 0.871
76 | RERF-LC-KJ | 0.837
77 | SK-MES-1 | 1.14
78 | PC-3 [JPC-3] | 0.821

The cell lines below were run with O=C(Nc1cc(C(F)(F)F)cc(C(F)(F)F)c1)c1cc(Cl)ccc1O [IMD-0354] + CC1(C)CCC(c2ccc(Cl)cc2)=C(CN2CCN(c3ccc(C(=O)NS(=O)(=O)c4ccc(N[C@H](CCN5CCOCC5)CSc5ccccc5)c(S(=O)(=O)C(F)(F)F)c4)cc3)CC2)C1 [Navitoclax] (partner 0.5 µM) in the same assay as above. Settings: first compound 0.04 µM.
In short: as §1

Row | Cell Line | relative viability
79 | PC-14 | 1.04
80 | EKVX | 0.967
81 | LC-2-ad | 0.408
82 | NCI-H2170 | 0.608
83 | NCI-H1975 | 1.28
84 | RERF-LC-KJ | 0.843
85 | SK-MES-1 | 1.48
86 | PC-3 [JPC-3] | 0.712

Same assay, conditions: first compound 0.1265 µM

Row | Cell Line | relative viability
87 | PC-14 | 0.937
88 | EKVX | 1.11
89 | LC-2-ad | 0.395
90 | NCI-H2170 | 0.585
91 | NCI-H1975 | 1.19
92 | RERF-LC-KJ | 1.1
93 | SK-MES-1 | 1.12
94 | PC-3 [JPC-3] | 0.823

Same assay, conditions: first compound 0.4 µM

Row | Cell Line | relative viability
95 | PC-14 | 0.425
96 | LC-2-ad | 0.199
97 | NCI-H2170 | 0.562
98 | NCI-H1975 | 0.528
99 | RERF-LC-KJ | 0.496
100 | SK-MES-1 | 0.649
101 | PC-3 [JPC-3] | 0.638

Same assay, conditions: first compound 1.265 µM

Row | Cell Line | relative viability
102 | PC-14 | 0.192
103 | EKVX | 0.573
104 | LC-2-ad | 0.0893
105 | NCI-H2170 | 0.644
106 | NCI-H1975 | 0.44
107 | RERF-LC-KJ | 0.109
108 | SK-MES-1 | 0.441
109 | PC-3 [JPC-3] | 0.527

Same assay, conditions: first compound 4 µM

Row | Cell Line | relative viability
110 | PC-14 | 0.103
111 | EKVX | 0.206
112 | LC-2-ad | 0.105
113 | NCI-H2170 | 0.274
114 | NCI-H1975 | 0.184
115 | RERF-LC-KJ | 0.228
116 | SK-MES-1 | 0.314
117 | PC-3 [JPC-3] | 0.264

These cell lines were tested with O=C(Nc1cc(C(F)(F)F)cc(C(F)(F)F)c1)c1cc(Cl)ccc1O [IMD-0354] + COc1cc2c(Oc3ccc(NC(=O)C4(C(=O)Nc5ccc(F)cc5)CC4)cc3F)ccnc2cc1OCCCN1CCOCC1 [Foretinib] (partner 0.25 µM) in the same assay as above. Settings: first compound 0.04 µM.
In short: as §1

Row | Cell Line | relative viability
118 | PC-14 | 1.05
119 | EKVX | 0.974
120 | LC-2-ad | 0.939
121 | NCI-H2170 | 1.05
122 | NCI-H1975 | 1.01
123 | RERF-LC-KJ | 0.934
124 | SK-MES-1 | 0.876
125 | PC-3 [JPC-3] | 1.07

Same assay, conditions: first compound 0.1265 µM

Row | Cell Line | relative viability
126 | PC-14 | 0.799
127 | EKVX | 0.975
128 | LC-2-ad | 0.885
129 | NCI-H2170 | 1.03
130 | NCI-H1975 | 1.03
131 | RERF-LC-KJ | 0.93
132 | SK-MES-1 | 0.66
133 | PC-3 [JPC-3] | 1

Same assay, conditions: first compound 0.4 µM

Row | Cell Line | relative viability
134 | PC-14 | 0.698
135 | EKVX | 0.714
136 | LC-2-ad | 0.524
137 | NCI-H2170 | 1.01
138 | NCI-H1975 | 0.483
139 | RERF-LC-KJ | 0.568
140 | SK-MES-1 | 0.831
141 | PC-3 [JPC-3] | 0.61

Same assay, conditions: first compound 1.265 µM

Row | Cell Line | relative viability
142 | PC-14 | 0.546
143 | EKVX | 0.0943
144 | LC-2-ad | 0.249
145 | NCI-H2170 | 0.841
146 | NCI-H1975 | 0.18
147 | RERF-LC-KJ | 0.471
148 | SK-MES-1 | 0.782
149 | PC-3 [JPC-3] | 0.376

Same assay, conditions: first compound 4 µM

Row | Cell Line | relative viability
150 | PC-14 | 0.179
151 | EKVX | 0.13
152 | LC-2-ad | 0.205
153 | NCI-H2170 | 0.268
154 | NCI-H1975 | 0.16
155 | RERF-LC-KJ | 0.214
156 | SK-MES-1 | 0.324
157 | PC-3 [JPC-3] | 0.272
